Results on nine molecules are retold here after patent US10941157B2, “Pesticidal compositions and uses thereof” (Gilead Apollo, LLC, priority 2015, dated 2021).

Each structure is given as a SMILES string. Values after ≈ are worked out from the molar mass of the structure shown. Read-outs that look alike come from different tables or passages of the source.

Holding throughout (assay type): cell-based
In one assay the test system is Diplodia maydis (Dm). The assay can be described thus: In vitro pathogen growth inhibition assay, Dm. The following applies: Stenocarpella maydis, 48 h. The method in brief: (§1)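 Value reported is the compound concentration reaching ≥90% growth inhibition, from OD readings at 24 and 48 h after blank subtraction, confirmed visually. Inoculum was spores diluted in 17% V8 medium, except Rs, using 1.5 mm mycelial plugs in ¼ PDB; actual compound concentration corrected via OD600.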

The subject of assay [1] is Fusarium virguliforme (Fv). The assay can be described thus: In vitro pathogen growth inhibition assay, Fv. The essentials:
as §1

The test system of another assay is Botrtyis cinerea (Bc). The assay can be described thus: In vitro pathogen growth inhibition assay, Bc. The conditions noted are these: 48 h. The essentials:
as §1

Another assay deals with Septoria tritici (St). The experiment in a line: In vitro pathogen growth inhibition assay, St. The conditions noted are these: Zymoseptoria tritici, 48 h. The method in brief:
as §1

Assay [2] relates to Phytophthora capsici (Pc). The experiment in a line: In vitro pathogen growth inhibition assay, Pc. The following applies: 48 h. The method in brief:
as §1

Another assay relates to Rhizoctonia solani (Rs). The experiment in a line: In vitro pathogen growth inhibition assay, Rs (mycelial plugs). The conditions noted are these: Rhizoctonia solani, 48 h. The method in brief: as §1
In assay [3] the test system is Fusarium moniliforme (Fm). The experiment in a line: In vitro pathogen growth inhibition assay, Fm. The following applies: Fusarium verticillioides. The essentials: as §1
The test system of assay [4] is Collectotrichum graminicola (Cg). The assay can be described thus: In vitro pathogen growth inhibition assay, Cg. The following applies: 48 h. The method in brief:
as §1

Where [5] appears, read: ≥90% growth inhibition, 48 hours, vs 2% DMSO control, read-out: Compound Concentration (ppm) sufficient for ≥90% inhibition of Dm.
Where [6] appears, read: ≥90% growth inhibition, 48 hours, vs 2% DMSO control, read-out: Compound Concentration (ppm) sufficient for ≥90% inhibition of Fv.
[7] abbreviates: ≥90% growth inhibition, 48 hours, vs 2% DMSO control, read-out: Compound Concentration (ppm) sufficient for ≥90% inhibition of Bc.
[8] abbreviates: ≥90% growth inhibition, 48 hours, vs 2% DMSO control, read-out: Compound Concentration (ppm) sufficient for ≥90% inhibition of St.
[9] abbreviates: ≥90% growth inhibition, 48 hours, vs 2% DMSO control, read-out: Compound Concentration (ppm) sufficient for ≥90% inhibition of Pc.
Where [10] appears, read: ≥90% growth inhibition, mycelial plugs, 48 hours, vs 2% DMSO control, read-out: Compound Concentration (ppm) sufficient for ≥90% inhibition of Rs.
The mark [11] stands for this setting: ≥90% growth inhibition, 48 hours, vs 2% DMSO control, read-out: Compound Concentration (ppm) sufficient for ≥90% inhibition of Fm.
The mark [12] stands for this setting: ≥90% growth inhibition, 48 hours, vs 2% DMSO control, read-out: Compound Concentration (ppm) sufficient for ≥90% inhibition of Cg.

Consider `Cc1c(-n2nccn2)sc2c1c(=O)n(C(C)(C)C(=O)NC(C)C)c(=O)n2C[C@H](OCC(C)(C)C#N)c1cc(C#N)ccc1OCC#N` [Compound I-269], for which the IC90 with Diplodia maydis (Dm) (setting [5]) was > 50 µg/mL; in assay [1] (setting [6]) it was 10 µg/mL (≈ 15.2 µM); in the assay on Botrtyis cinerea (Bc) (setting [7]), 10 µg/mL (≈ 15.2 µM); in the assay with Septoria tritici (St) (setting [8]), > 50 µg/mL; in assay [2] (setting [9]) it was > 50 µg/mL; in the assay on Rhizoctonia solani (Rs) (setting [10]) it was 2 µg/mL (≈ 3.04 µM). The IC90 in assay [3] (setting [11]) is 0.4 µg/mL (≈ 0.608 µM); in assay [4] (setting [12]), > 50 µg/mL.
For the molecule `COc1ccc(Br)cc1[C@H](Cn1c(=O)n(C(C)(C)C(=O)NC(C)C)c(=O)c2c(C)c(-n3nccn3)sc21)OCC(C)(C)C#N` [Compound I-270], the IC90 in the assay on Diplodia maydis (Dm) (setting [5]) was 2 µg/mL (≈ 2.91 µM); in assay [1] (setting [6]) it was 0.4 µg/mL (≈ 0.583 µM); in the assay on Botrtyis cinerea (Bc) (setting [7]), 0.4 µg/mL (≈ 0.583 µM); in the assay on Septoria tritici (St) (setting [8]), > 50 µg/mL; in assay [2] (setting [9]), > 50 µg/mL; in the assay on Rhizoctonia solani (Rs) (setting [10]), > 50 µg/mL. In addition, the IC90 in assay [3] (setting [11]) came out at 0.08 µg/mL (≈ 0.117 µM); in assay [4] (setting [12]), 2 µg/mL (≈ 2.91 µM).
Regarding `Cc1c(-n2nccn2)sc2c1c(=O)n(C(C)(C)C(=O)NC(C)C)c(=O)n2C[C@H](OCCO)c1cc(F)ccc1O` [Compound I-271], the IC90 in the assay with Diplodia maydis (Dm) (setting [5]) was 50 µg/mL (≈ 87 µM); in assay [1] (setting [6]) it was 10 µg/mL (≈ 17.4 µM); in the assay on Botrtyis cinerea (Bc) (setting [7]), 10 µg/mL (≈ 17.4 µM); with Septoria tritici (St) (setting [8]), > 50 µg/mL; in assay [2] (setting [9]) it was 50 µg/mL (≈ 87 µM); in the assay with Rhizoctonia solani (Rs) (setting [10]), 2 µg/mL (≈ 3.48 µM). Further, the results for the IC90 in assay [3] (setting [11]) and in assay [4] (setting [12]) were 2 µg/mL (≈ 3.48 µM) and ≥ 10 µg/mL, respectively.
Regarding `COc1ccc(Cl)cc1[C@H](Cn1c(=O)n(C(C)(C)C(=O)NC(C)C)c(=O)c2c(C)c(-n3nccn3)sc21)OCC(C)(C)C#N` [Compound I-272], the IC90 is 2 µg/mL (≈ 3.11 µM) with Diplodia maydis (Dm) (setting [5]); 2 µg/mL (≈ 3.11 µM) in assay [1] (setting [6]); 2 µg/mL (≈ 3.11 µM) with Botrtyis cinerea (Bc) (setting [7]); > 50 µg/mL with Septoria tritici (St) (setting [8]); > 50 µg/mL in assay [2] (setting [9]); 2 µg/mL (≈ 3.11 µM) in the assay with Rhizoctonia solani (Rs) (setting [10]). Besides, the IC90 in assay [3] (setting [11]) and in assay [4] (setting [12]) was 2 µg/mL (≈ 3.11 µM) each time.
For the molecule `COc1ccc(F)cc1[C@](C)(Cn1c(=O)n(C(C)(C)C(=O)NC(C)C)c(=O)c2c(C)c(-n3nccn3)sc21)OCCC#N` [Compound I-273], the IC90 in the assay on Diplodia maydis (Dm) (setting [5]) is 50 µg/mL (≈ 81.7 µM); in assay [1] (setting [6]), 0.4 µg/mL (≈ 0.654 µM); in the assay on Botrtyis cinerea (Bc) (setting [7]) it was 0.4 µg/mL (≈ 0.654 µM); with Septoria tritici (St) (setting [8]) it was > 50 µg/mL; in assay [2] (setting [9]), > 50 µg/mL; in the assay on Rhizoctonia solani (Rs) (setting [10]), 2 µg/mL (≈ 3.27 µM). Further, the results for the IC90 in assay [3] (setting [11]) and in assay [4] (setting [12]) were 0.08 µg/mL (≈ 0.131 µM) and 2 µg/mL (≈ 3.27 µM), respectively.
Turning to `COc1ccc(F)cc1[C@](O)(CCO)Cn1c(=O)n(C(C)(C)C(=O)NC(C)C)c(=O)c2c(C)c(-n3nccn3)sc21` [Compound I-275], the IC90 in the assay with Diplodia maydis (Dm) (concentration sufficient to ≥90% inhibition of growth, 48 hours vs 2% DMSO control, read-out: Compound Concentration (ppm) for ≥90% inhibition, Dm) was > 50 µg/mL; in assay [1] (concentration sufficient to ≥90% inhibition of growth, 48 hours vs 2% DMSO control, read-out: Compound Concentration (ppm) for ≥90% inhibition, Fv), > 50 µg/mL; with Botrtyis cinerea (Bc) (concentration sufficient to ≥90% inhibition of growth, 48 hours vs 2% DMSO control, read-out: Compound Concentration (ppm) for ≥90% inhibition, Bc), 50 µg/mL (≈ 84.9 µM); in the assay on Septoria tritici (St) (concentration sufficient to ≥90% inhibition of growth, 48 hours vs 2% DMSO control, read-out: Compound Concentration (ppm) for ≥90% inhibition, St), > 50 µg/mL; in assay [2] (concentration sufficient to ≥90% inhibition of growth, 48 hours vs 2% DMSO control, read-out: Compound Concentration (ppm) for ≥90% inhibition, Pc), > 50 µg/mL; in the assay on Rhizoctonia solani (Rs) (concentration sufficient to ≥90% inhibition of growth, 48 hours vs 2% DMSO control, read-out: Compound Concentration (ppm) for ≥90% inhibition, Rs) it was 50 µg/mL (≈ 84.9 µM). Further, the IC90 in assay [3] (concentration sufficient to ≥90% inhibition of growth, 48 hours vs 2% DMSO control, read-out: Compound Concentration (ppm) for ≥90% inhibition, Fm) amounted to 50 µg/mL (≈ 84.9 µM); in assay [4] (concentration sufficient to ≥90% inhibition of growth, 48 hours vs 2% DMSO control, read-out: Compound Concentration (ppm) for ≥90% inhibition, Cg) it was 50 µg/mL (≈ 84.9 µM).
As for `COc1ccc(F)cc1[C@@](O)(CCO)Cn1c(=O)n(C(C)(C)C(=O)NC(C)C)c(=O)c2c(C)c(-n3nccn3)sc21` [Compound I-276], the IC90 is 2 µg/mL (≈ 3.4 µM) with Diplodia maydis (Dm) (setting [5]); 2 µg/mL (≈ 3.4 µM) in assay [1] (setting [6]); 2 µg/mL (≈ 3.4 µM) with Botrtyis cinerea (Bc) (setting [7]); > 50 µg/mL in the assay with Septoria tritici (St) (setting [8]); 10 µg/mL (≈ 17 µM) in assay [2] (setting [9]); 0.08 µg/mL (≈ 0.136 µM) with Rhizoctonia solani (Rs) (setting [10]). Moreover, the IC90 in assay [3] (setting [11]) amounted to 0.4 µg/mL (≈ 0.68 µM); in assay [4] (setting [12]), 2 µg/mL (≈ 3.4 µM).
Turning to `Cc1c(-n2nccn2)sc2c1c(=O)n(C(C)(C)C(=O)NC(C)C)c(=O)n2C[C@H](OC(C)C)c1cc(F)ccc1CCC#N` [Compound I-277], the IC90 with Diplodia maydis (Dm) (setting [5]) was 2 µg/mL (≈ 3.28 µM); in assay [1] (setting [6]), 0.08 µg/mL (≈ 0.131 µM); in the assay on Botrtyis cinerea (Bc) (setting [7]), 0.4 µg/mL (≈ 0.656 µM); in the assay with Septoria tritici (St) (setting [8]), > 50 µg/mL; in assay [2] (setting [9]), > 50 µg/mL; in the assay on Rhizoctonia solani (Rs) (setting [10]) it was 0.08 µg/mL (≈ 0.131 µM). The IC90 in assay [3] (setting [11]) worked out at 0.08 µg/mL (≈ 0.131 µM); in assay [4] (setting [12]), 0.4 µg/mL (≈ 0.656 µM).
Turning to `Cc1c(-n2nccn2)sc2c1c(=O)n(C(C)(C)C(=O)NC(C)C)c(=O)n2C[C@H](OCC(C)(C)O)c1cc(F)ccc1OCC#N` [Compound I-278], the IC90 in the assay with Diplodia maydis (Dm) (setting [5]) is 2 µg/mL (≈ 3.12 µM); in assay [1] (setting [6]), 2 µg/mL (≈ 3.12 µM); in the assay on Botrtyis cinerea (Bc) (setting [7]), 2 µg/mL (≈ 3.12 µM); in the assay on Septoria tritici (St) (setting [8]), > 50 µg/mL; in assay [2] (setting [9]), 10 µg/mL (≈ 15.6 µM); in the assay with Rhizoctonia solani (Rs) (setting [10]), 0.4 µg/mL (≈ 0.623 µM). Also, the IC90 in assay [3] (setting [11]) and in assay [4] (setting [12]) was 0.4 µg/mL (≈ 0.623 µM) each time.
